1 compound from PubChem BioAssay (NCI) can be followed below.

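How tested: cells in 96-well plates exposed to compound for 48 hours at five concentrations. The concentration for full growth arrest is given as TGI.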

In this test the test system is P388 leukemia. Description: NCI tumour cell line growth inhibition, 48 h.

The compound `CC1[C@@H]2CC=C3[C@H]4CCC5Cc6nc7c(nc6C[C@@]5(C)C4CC(=O)[C@]32CO[C@]12OC(C)(C)CC2O)CC1CC[C@@H]2C3=C[C@H]4O[C@@]5(O[C@@](C)(CO)C[C@@H]5O)C(C)[C@@]4(O)[C@]3(C)[C@@H](O)CC2[C@]1(C)C7` (stereo partly specified) displayed a TGI of 0.638 nM.
